Values quoted from earlier work in patent publication US20230277473A1 (priority 2023, published 2023).

Assays:
[1] = in vivo

Q: For `Cc1nc2n(c(=O)c1CCN1CCC(c3noc4cc(F)ccc34)CC1)CCCC2O` (centres unmarked) [9-hydroxyrisperidone], which half-life [1] is on record?
A: 21 h

Q: For `Cc1nc2n(c(=O)c1CCN1CCC(c3noc4cc(F)ccc34)CC1)CCCC2` [RPD, risperidone], which solubility in water is on record?
A: almost insoluble in water
